Patent US11477982B2, “2-amino-5-oxyalkyl-pyrimidine derivatives and their use for controlling undesired plant growth” (Bayer CropScience Aktiengesellschaft, priority 2017, dated 2022)

Tests used:
Type in all cases: in vivo
[1] = system: ABUTH: Abutilon theophrasti; assay: Post-emergence herbicidal effect; details: dosage 320 g/ha
Summary of the method: (§1)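 Weeds grown from seed in sandy loam in the greenhouse were sprayed at the one-leaf stage, 2 to 3 weeks after sowing. Compounds formulated as WP or EC were applied as aqueous suspension or emulsion with 0.5% additive at 600 l/ha. Activity was scored visually after about 3 weeks versus untreated controls (100% = dead, 0% = as control).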

[2] = system: VIOTR: Viola tricolor; assay: Post-emergence herbicidal effect; details: dosage 320 g/ha
Summary of the method: as §1

[3] = system: ECHCG: Echinochloa crus-galli; assay: Post-emergence herbicidal effect; details: dosage 320 g/ha
Summary of the method: as §1

[4] = system: SETVI: Setaria viridis; assay: Post-emergence herbicidal effect; details: dosage 320 g/ha
Summary of the method: as §1

[5] = system: STEME: Stellaria media; assay: Post-emergence herbicidal effect; details: dosage 320 g/ha
Summary of the method: as §1

[6] = system: VERPE: Veronica persica; assay: Post-emergence herbicidal effect; details: dosage 320 g/ha
Summary of the method: as §1

[7] = system: AMARE: Amaranthus retroflexus; assay: Post-emergence herbicidal effect; details: dosage 320 g/ha
Summary of the method: as §1

[8] = system: AVEFA: Avena fatua; assay: Pre-emergence herbicidal effect; details: dosage 320 g/ha
Summary of the method: (§2)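 Visual damage rating after ~3 weeks in greenhouse, expressed as % activity relative to untreated pots, where 0% equals control and 100% means dead plants. Treatment was pre-emergence: WP or EC formulations applied to covering soil at 600 l/ha water with 0.5% additive.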

[9] = system: HORMU: Hordeum murinum; assay: Pre-emergence herbicidal effect; details: for Herbicidal action against HORMU: pre-emergence, dosage 320 g/ha
Summary of the method: as §2

[10] = system: POLCO: Polygonum convolvulus; assay: Pre-emergence herbicidal effect; details: for Herbicidal action against POLCO: dosage 320 g/ha
Summary of the method: as §2

[11] = system: PHBPU: Ipomoea purpurea; assay: Pre-emergence herbicidal effect; details: for Herbicidal action against PHBPU: dosage 320 g/ha
Summary of the method: as §2

[12] = system: ABUTH: Abutilon theophrasti; assay: Pre-emergence herbicidal effect; details: for Herbicidal action against ABUTH: dosage 320 g/ha
Summary of the method: as §2

[13] = system: LOLRI: Lolium rigidum; assay: Pre-emergence herbicidal effect; details: for Herbicidal action against LOLRI: dosage 320 g/ha
Summary of the method: as §2

[14] = system: VIOTR: Viola tricolor; assay: Pre-emergence herbicidal effect; details: dosage 320 g/ha
Summary of the method: as §2

[15] = system: ALOMY: Alopecurus myosuroides; assay: Pre-emergence herbicidal effect; details: for Herbicidal action against ALOMY: dosage 320 g/ha
Summary of the method: as §2

[16] = system: ECHCG: Echinochloa crus-galli; assay: Pre-emergence herbicidal effect; details: for Herbicidal action against ECHCG: dosage 320 g/ha
Summary of the method: as §2

[17] = system: MATIN: Matricaria inodora; assay: Pre-emergence herbicidal effect; details: for Herbicidal action against MATIN: pre-emergence, dosage 320 g/ha
Summary of the method: as §2

[18] = system: SETVI: Setaria viridis; assay: Pre-emergence herbicidal effect; details: for Herbicidal action against SETVI: dosage 320 g/ha
Summary of the method: as §2

[19] = system: STEME: Stellaria media; assay: Pre-emergence herbicidal effect; details: for Herbicidal action against STEME: pre-emergence, dosage 320 g/ha
Summary of the method: as §2

[20] = system: VERPE: Veronica persica; assay: Pre-emergence herbicidal effect; details: dosage 320 g/ha
Summary of the method: as §2

[21] = system: AMARE: Amaranthus retroflexus; assay: Pre-emergence herbicidal effect; details: for Herbicidal action against AMARE: pre-emergence, dosage 320 g/ha
Summary of the method: as §2

[22] = Table 4b, pre-emergence as titled, dosage 80 g of a.i./ha
[23] = Table 4a, dosage 20 g of a.i./ha
[24] = Table 4a, pre-emergence, dosage 20 g of a.i./ha

Compound | Herbicidal action against ABUTH [1] | Herbicidal action against VIOTR [2] | Herbicidal action against ECHCG [3] | Herbicidal action against SETVI [4] | Herbicidal action against STEME [5] | Herbicidal action against VERPE [6] | Herbicidal action against AMARE [7] | Herbicidal action against AVEFA [8] | Herbicidal action against HORMU [9] | Herbicidal action against POLCO [10] | Herbicidal action against PHBPU [11] | Herbicidal action against ABUTH [12] | Herbicidal action against LOLRI [13] | Herbicidal action against VIOTR [14] | Herbicidal action against ALOMY ([15]; pre-emergence) | Herbicidal action against ECHCG ([16]; pre-emergence) | Herbicidal action against MATIN [17] | Herbicidal action against SETVI ([18]; pre-emergence) | Herbicidal action against STEME [19] | Herbicidal action against VERPE [20] | also measured
CCc1ccc2c(c1)[C@H](Nc1ncc(C(C)(C)O)cn1)CC2 [Example 1.31] | 90% | 90% | 100% | 90% | 100% | 90% | 100% | 100% | 100% | 100% | 100% | 100% | 100% | 100% | 100% | 100% | 100% | 100% | 100% | 100% | Herbicidal action against AMARE [21]: 100%
Cc1ccc2c(c1)C(Nc1ncc(C(C)(C)O)c(C)n1)CCC2 (racemic) [Example 1.52] | 90% | 90% | 100% | 80% | 100% | 90% | 90% | 100% | 100% | 100% | 100% | 100% | 100% | 100% | 100% | 100% | 100% | 100% | 100% | 100% | Herbicidal efficacy against HORMU [9, 22]: 90; Herbicidal efficacy against POLCO [10, 23]: 100; Herbicidal efficacy against PHBPU [11, 23]: 100; Herbicidal efficacy against ABUTH [12, 23]: 100; Herbicidal efficacy against LOLRI [13, 23]: 60; Herbicidal efficacy against ALOMY [15, 24]: 90; Herbicidal efficacy against ALOMY [15, 22]: 90; Herbicidal efficacy against ECHCG [16, 24]: 100; Herbicidal efficacy against ECHCG [16, 22]: 70; Herbicidal efficacy against MATIN [17, 22]: 70; Herbicidal efficacy against SETVI [18, 24]: 100; Herbicidal efficacy against SETVI [18, 22]: 80; Herbicidal efficacy against STEME [19, 22]: 90; Herbicidal efficacy against AMARE [21, 22]: 80; Herbicidal action against AMARE [21]: 100%
Cc1ccc2c(c1)[C@H](Nc1ncc(C(C)(C)O)c(C)n1)CC2 [Example 1.12] | 90% | 80% | 100% | 100% | 100% | 90% | 90% | 100% | 100% | 100% | 100% | 100% | 100% | 100% | 100% | 100% | 100% | 100% | 100% | 100% | Herbicidal action against AMARE [21]: 100%
C=CC(C)(O)c1cnc(N[C@H]2c3cc(C)ccc3C[C@@H]2C)nc1 (stereo partly drawn) [Example 1.15, 2-(2-{[(1R,2S)-2,6-Dimethyl-2,3-dihydro-1H-inden-1-yl]amino}pyrimidin-5-yl)but-3-en-2-ol] | 90% | 80% | 100% | 80% | 100% | 90% | 90% | 100% | 100% | 100% | 100% | 100% | 100% | 100% | 100% | 100% | 100% | 100% | 100% | 100% | Herbicidal action against AMARE [21]: 100%
